In ChEMBL document CHEMBL1137038, “7-Substituted 2-phenyl-benzofurans as ER beta selective ligands” (Bioorg Med Chem Lett, 2004) one finds IC50 data, which are given here for 2 compounds.

For the experiment, the target named is T1, Estrogen receptor (Homo sapiens, UniProt P03372).
T1 sequence (P03372 whole entry): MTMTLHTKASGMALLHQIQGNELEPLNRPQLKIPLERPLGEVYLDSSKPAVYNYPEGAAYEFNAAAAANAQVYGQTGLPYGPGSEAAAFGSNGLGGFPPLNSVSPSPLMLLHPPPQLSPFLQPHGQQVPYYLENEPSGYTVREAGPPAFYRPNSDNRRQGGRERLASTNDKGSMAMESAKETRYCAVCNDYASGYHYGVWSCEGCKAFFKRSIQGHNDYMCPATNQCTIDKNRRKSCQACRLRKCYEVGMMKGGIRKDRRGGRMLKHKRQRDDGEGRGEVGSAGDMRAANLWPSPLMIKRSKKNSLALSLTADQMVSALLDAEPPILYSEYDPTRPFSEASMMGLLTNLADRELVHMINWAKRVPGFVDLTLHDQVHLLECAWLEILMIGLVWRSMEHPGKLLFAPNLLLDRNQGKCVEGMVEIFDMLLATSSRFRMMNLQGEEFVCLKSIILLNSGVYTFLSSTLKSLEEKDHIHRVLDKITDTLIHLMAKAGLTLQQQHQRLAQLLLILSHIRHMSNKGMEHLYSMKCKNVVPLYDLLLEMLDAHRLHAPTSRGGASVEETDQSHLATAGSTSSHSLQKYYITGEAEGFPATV
Description: Binding affinity for human Estrogen receptor alpha

Broadly, the IC50 is the concentration needed to halve the response being measured. A higher IC50 goes with lower potency. The compound `COc1cc(O)cc2cc(-c3ccc(O)c(F)c3)oc12` displayed a half-maximal inhibitory concentration (IC50) of 990 nM.
Under `COc1cc(O)c(Br)c2cc(-c3ccc(O)c(F)c3)oc12` stands 335 nM.
